Test results from patent US4874776A, “Compound having mucus regulating and elastase-inhibitory activities, for the therapy of pulmonal emphysema and pulmonal fibrosis” (Yason S.r.l., priority 1988, dated 1989).

Assays:
collagenase = assay: Collagenase inhibitory activity; format: biochemical; settings: read-out: IC50 collagenase inhibition
Experimental: The inhibition of collagenase by means of YS 795 was evaluated according to the method by C. L. Hu, G. Crombie, C. Franzeblau (Analyt., Biochem. 88, 638, 1978).

[1] = system: emphysema induced by porcine pancreatic elastase; assay: Emphysema induced by porcine pancreatic elastase in the hamster; format: in vivo
Experimental: Emphysema induced by porcine pancreatic elastase in the hamster.
Capability of YS 795 in preventing emphysema caused by instillation of elastase was studied according to the method by Stone P. J. et al. (Am. Rev. Respir. Dis.; 124/1; 1981) and by Yu et al. ("Elastin and elastic tissues"; Plenum Press; New York; 1977).
16 Hamsters weighing 100-120 g were divided in 4 groups of 4 animals each (Groups A, B, C and controls) and treated as follows:
Group A: in tratracheal instillation of 0,1 mg of porcine pancreatic elastase 1 hour after administration of 100 mg/kg of YS 795.
Group B: YS 795 was administered 1 hour after elastase instillation.
Group C: YS 795 was administered 4 hours after elastase instillation.
Controls: physiological saline was administered 1 hour after elastase instillation.
At set times (72 hours and 12 days), the animals were killed after intraperitoneal anesthesia with pentobarbital. Lungs were intubated through trachea and fixed.
Morphological and morphometrical analysis of the pulmonal sections were then carried out under a microscope.

[2] = Solubility of the obtained compound; format: physicochemical
[3] = Acute toxicity (LD50, Litchfield and Wilcoxon) in the rat; settings: in vivo, read-out: DL50 (the source's name)
Experimental: (§1) Acute toxicity of YS 795 was calculated in the rat and the mouse after both oral and intraperitoneal administrations.
(§2) LD50 was determined according to the method of Litchfield and Wilcoxon (J. Pharmacol. Exp. Therap. 96, 99-118, 1949).

[4] = system: secretion of respiratory tract; assay: Bronchosecretagogue activity, sodium fluoresceine test; format: in vivo, rat; settings: male Wistar rats, 100 mg/kg; for SODIUM FLUORESCEINE: 10 animals
Experimental: Bronchosecretagogue activity was evaluated by means of sodium fluoresceine test, according to the procedure by Mawatari ("Experimental studies on the expectorant action of several drugs" Kagoshima Kaigaken Igaken Zasshi 27, 561, 1976), said test consisting in determining the sodium fluoresceine amount eliminated from respiratory tract: the higher the secretion, the higher the amount of sodium fluoresceine eliminated. Accordingly, any compound increasing the secretion of respiratory tract causes an increase in sodium fluoresceine elimination, which can easily be calculated.
Male Wistar rats (100-200 g body weight), fasted for 18 hours, with water "ad libitum", were administered with YS 795 at the dose of 100 mg/kg and, by comparison, with carboxymethyl cystein at equiponderal doses, by the oral route.
30 minutes after the treatment, sodium fluoresceine was injected subcutaneously and 30 minutes after the animals were killed by bleeding. The whole respiratory tree was then withdrawn and the percentage of sodium fluoresceine present was evaluated.

[5] = system: patients affected by chronic bronchitis; assay: Clinical study in patients affected by chronic bronchitis (tolerability and mucus regulating activity); format: in vivo, human; settings: 3×300 mg capsules a day
Experimental: YS 795 in capsules was administered to hospitalized patients affected by chronic bronchitis, in order to test tolerability and mucus regulating activity.
10 patients, 5 males and 5 females, of 65-70 years age, smokers or ex-smokers, were treated with YS 795 administered at a dose of 3×300 mg capsules a day, in the morning, at noon and in the night, with full stomach, for a period of 4 weeks.
All drugs having mucolytic, bronchodynamic, steroidal and balsamic activities were excluded during the observation period, whereas the "routine" therapy of concomitant diseases, based on administration of diuretic, hypotensive, antidiabetic, vasodilating and antibiotic drugs, was continued.
Before and after the treatment, tests were carried out to evaluate possible side-effects of YS 795 on hemopoietic, hepatic and renal functions; heart rate and arterial pressure were further checked during the treatment.

[6] = Acute toxicity (LD50, Litchfield and Wilcoxon) in the mouse; settings: in vivo, read-out: DL50 (the source's name)
Experimental: as §1, §2

elastase = assay: Elastase-inhibitory activity; format: biochemical
Experimental: Inhibition of elastase activity by YS 795 was evaluated according to the method by D. A. Hall, S. El Ridi (Methods of connective tissue research, Ioyson-Bruvvers Ltd.; Oxford--1976) and by R. M. Senior et al. (Elastine and elastic Tissue, Plenum Press, pp. 249-254, New York--1977).

[7] = system: hepatic intoxication induced by carbon tetrachloride; assay: Hepato-protecting activity, hepatic intoxication induced by carbon tetrachloride; format: in vivo, rat; settings: male Wistar rats, 100 mg/kg i.p.; for GPT x ± es: 15 minutes before CCl4 0,15 ml/kg oral, 24 hours; for GPT % INHIBITION VS. CONTROLS: CCl4 0,15 ml/kg
Experimental: Hepato-protecting activity of YS 795 was evaluated in comparison with N-acetylcystein, by means of the test of hepatic intoxication induced by carbon tetrachloride, according to the method by Sanna et al. (Experientia, 32 (1), 91, 1976).
Male Wistar rats (268-346 g body weight) fasted for 18 hours, with water "ad libitum", were used.
YS 795 and N-acetylcystein were administered intraperitoneally at the dose of 100 mg/kg, whereas the control group received the only carrier.
15 minutes after the drug administration, the animals were treated orally with 0,15 ml/kg of carbon tetrachloride.
After 24 more hours, the animals were killed by bleeding after ether anesthesia.

[8] = Pharmacokinetics, plasma and tissue concentrations by gaschromatographic analysis; format: in vivo; settings: rat
Experimental: Male CD-COBS rats weighing 200-220 g were used, treated with YS 795 and 4-thiazolidine-carboxylic acid by the oral or intraperitoneal route, in equimolecular amounts (YS 795=795=100 mg/kg; thiazolidine-carboxylic acid =65 mg/kg).
One hour after the treatment the animals were killed by beheading; blood was collected in heparinized test-tubes and centrifuged for 10 minutes at 3500 rpm to prepare plasma. The tissues (liver, lung, kidney and brain) were homogenized in 4 volumes of 0,05M phosphate buffer.
Tissular concentrations were studied by gaschromatographic analysis.

Structure (SMILES): CCOC(=O)N1CSCC1C(=O)O (stereo not drawn) [YS 795, N-carbethoxy-4-thiazolidine-carboxylic acid]
- IC50 (collagenase): 15 mM
- Effect of the time of administration on the antiemphysema effect ([1]; administered 1 hour before vs. 1 or 4 hours after elastase instillation): more marked when YS 795 was administered before elastase instillation
- Antagonism of pulmonal emphysema (morphological and morphometrical analysis of pulmonal sections) ([1]; hamster, 100 mg/kg, 0,1 mg elastase intratracheal, 72 hours and 12 days): can antagonize pulmonal emphysema induced by porcine pancreatic elastase
- Solubility in common organic solvents ([2]; common organic solvents): soluble in common organic solvents
- Solubility in water ([2]; water): unsoluble in water
- LD50 ([3]; ip, female): 420 mg/kg
- LD50 ([3]; ip, male): 415 mg/kg
- LD50 ([3]; po, os, male): > 4000 mg/kg
- SODIUM FLUORESCEINE % Δ vs. controls [4]: 70,9%
- SODIUM FLUORESCEINE [4]: 0,53 μg/ml
- Fluidifying and mucus regulating activities ([5]; patients with chronic bronchitis, 4 weeks): good fluidifying and mucus regulating activities
- Effects on arterial pressure and heart rate ([5]; patients, 4 weeks): no clinically significant effects
- Tolerability at gastric level ([5]; patients, 4 weeks): well tolerated
- Effect on hemopoietic, hepatic and renal functions (laboratory tests) ([5]; patients, before and after 4 weeks): does not affect hemopoietic, hepatic and renal functions
- LD50 ([6]; ip, female): 372 mg/kg
- LD50 ([6]; ip, male): 380 mg/kg
- LD50 ([6]; po, os, male): > 4000 mg/kg
- IC50 (elastase): 11 mM
- GPT x ± es [7]: 220 ± 84,47 U/L
- GPT % INHIBITION VS. CONTROLS [7]: 38,4%
- Metabolism [8]: subsequently metabolized to n-thiazolidine-carboxylic acid
- Time till which the compound is still found as such [8]: 12 h
- Time of plasmatic concentration peak ([8]; after the administration): between the first and the second hour
- Drug amounts in liver and lungs in comparison with thiazolidine-carboxylic acid ([8]; equimolecular amounts (100 mg/kg vs. 65 mg/kg)): remarkanly higher
- Tissue distribution (liver, lung, kidney, brain) ([8]; found as such and as thiazolidine-carboxylic derivative): present in all the examined tissues
- Absorption ([8]; oral and intraperitoneal route, 100 mg/kg): well adsorbed by both oral and intraperitonel route

Structure (SMILES): NC(CSCC(=O)O)C(=O)O (stereo not drawn) [S--CARBOXYMETHYLCYSTEIN, reference compound]
- SODIUM FLUORESCEINE % Δ vs. controls [4]: 80,6%
- SODIUM FLUORESCEINE [4]: 0,56 μg/ml

Structure (SMILES): CC(=O)N[C@@H](CS)C(=O)O [N--ACETYLCYSTEIN, N-acetylcystein, reference compound]
- GPT x ± es [7]: 168,2 ± 8,68 U/L
- GPT % INHIBITION VS. CONTROLS [7]: 52,9%
